# From US20130317056A1, “NEURONAL NICOTINIC AGONISTS AND METHODS OF CORRELATING COMT SNPS” (ABBVIE INC., priority 2012, published 2013)
# Columns and labels:
# Assay type in all cases: in vivo, human
# [1] = system: clinically stable subjects with schizophrenia; assay: MATRICS Consensus Cognitive Battery (MCCB), Phase 2a Clinical Study A, ITT; conditions: 25 mg QD, Change to Week 12
# From the text: A Phase 2a proof-of-concept (POC) study in clinically stable subjects with schizophrenia who were clinically stable and received stable doses of atypical antipsychotic therapy. The study was a Phase 2, multi-center, randomized, double-blind, placebo-controlled, parallel group study designed to evaluate the safety and efficacy of doses of (4s)-4-(5-phenyl-1,3,4-thiadiazol-2-yloxy)-1-azatricyclo[3.3.1.1^3,7]decane (Compound A) in clinically stable male and female subjects (ages 20 to 55, inclusive) with a Diagnostic and Statistical Manual of Mental Disorders—Fourth Edition, Text Revision (DSM-IV-TR) diagnosis of schizophrenia. […] The criteria for clinical stability was determined by a combination of retrospective data (over the 4 months prior to the start of Screening, which will be supported by clinical records, patient, identified responsible contact person, and physician interviews), and prospective data assessed during the Prospective Stabilization Period of 28 to 42 days duration. […]
# The primary endpoint was the MCCB composite score, and the primary endpoint analysis was the change on the MCCB composite score from baseline to endpoint versus placebo. Other secondary measures included the MCCB domains, the NSA-16, the CANTAB cognition battery (measured at different time points from the MCCB), and the UPSA-2. […]
# [2] = system: clinically stable subjects with schizophrenia; assay: UCSD Performance-Based Skills Assessment-2 (UPSA-2), Clinical Study A
# From the text: A Phase 2a proof-of-concept (POC) study in clinically stable subjects with schizophrenia who were clinically stable and received stable doses of atypical antipsychotic therapy. The study was a Phase 2, multi-center, randomized, double-blind, placebo-controlled, parallel group study designed to evaluate the safety and efficacy of doses of (4s)-4-(5-phenyl-1,3,4-thiadiazol-2-yloxy)-1-azatricyclo[3.3.1.1^3,7]decane (Compound A) in clinically stable male and female subjects (ages 20 to 55, inclusive) with a Diagnostic and Statistical Manual of Mental Disorders—Fourth Edition, Text Revision (DSM-IV-TR) diagnosis of schizophrenia. Psychiatric diagnoses were confirmed using the Mini-International Neuropsychiatric Interview (MINI) version 6.0.0. The criteria for clinical stability was determined by a combination of retrospective data (over the 4 months prior to the start of Screening, which will be supported by clinical records, patient, identified responsible contact person, and physician interviews), and prospective data assessed during the Prospective Stabilization Period of 28 to 42 days duration.
# The study was a Phase 2, multi-center, randomized, double-blind, placebo-controlled, parallel group study designed to evaluate the safety and efficacy of doses of (4s)-4-(5-phenyl-1,3,4-thiadiazol-2-yloxy)-1-azatricyclo[3.3.1.1^3,7]decane, which is also recognized as Compound A, in treating cognitive deficits in subjects with schizophrenia who were clinically stable and receiving one or two atypical antipsychotic medications. Study drug was administered orally.
# The study consisted of a screening period of at least 28 and up to 42 days, a 84-day outpatient treatment period, a 14-day post-treatment period, and a post-treatment follow-up period. The screening period consisted of three visits: Screening Visit 1, Screening Visit 2, and Day −1. Upon completion of Day −1 procedures, eligible subjects were randomized through an Interactive Voice Response/Interactive Web-Based (IVR/IWB) system. Subjects were randomized in an equal ratio to one of three treatment groups (placebo, 10 mg Compound A, or 25 mg Compound A).
# The primary endpoint was the MCCB composite score, and the primary endpoint analysis was the change on the MCCB composite score from baseline to endpoint versus placebo. Other secondary measures included the MCCB domains, the NSA-16, the CANTAB cognition battery (measured at different time points from the MCCB), and the UPSA-2. The Positive and Negative Syndrome Scale (PANSS) was included to document stability in schizophrenia symptomatology.
# The UCSD Performance-Based Skills Assessment-2 (UPSA-2) is a role-play test designed for subjects with schizophrenia to evaluate cognitive functional capacity in six selected domains of basic living skills. These areas include Organization/Planning, Financial Skills, Communication, Transportation, Household Management, and Medication Management. […] Scores were obtained for each subtest, and the total score was the sum of these subtests. […] The UPSA-2 required an average of 30 minutes to administer. The UPSA-2 was administered in on Days 14, 28, 56, 84 and 98.
# [3] = system: subjects with schizophrenia who were current smokers; assay: MCCB composite score in current smokers by COMT allele type, Clinical Study A; conditions: for MCCB Change from Baseline to Final Mean(SD) / MCCB Between-group Difference (Pooled SD) / MCCB Effect Size (Raw mean): current smokers
# Protocol: Analysis of the data by cigarette smoking status (current smoker or current nonsmoker) indicated a significant […] interaction (p=0.015).
# A blood sample for genotyping was collected from each subject who consented. Genomic DNA was isolated from whole blood using the FlexiGene DNA AGF3000 kit (Qiagen, Valencia, Calif.), on an AutogenFlex 3000 (AutoGen, Holliston, Mass.). Genotypes were determined using the Pyrosequencing detection method (USA—Qiagen, Inc., Valencia, Calif.). Individuals performing the genotyping were blinded to clinical trial data. The significance of the minor allele against the major allele is shown in column marked “Treatment genotype p-value” (Tables 6 and 7).
# The SNPs analyzed were RS6269, RS4633, RS4680, and RS4818. The treatment effects across all 4 SNPs in the minor allele indicated a dose-response relationship. The magnitude of the effect for the Compound A 25 mg treatment group was as low as +1.8 points on the MCCB composite score for SNP4680 (corresponding to a Coen's d effect size of 0.43) to as high as +3.7 points for SNP RS4818 (corresponding to a Coen's d effect size of 0.93). […] In fact, the treatment response for both Compound A active treatment groups was generally less than that of placebo for subjects containing the major COMT allele.
# [4] = RS4633 T/T or C/T (minor allele), 25 mg vs placebo
# [5] = RS4818 G/C or G/G (minor allele), 10 mg vs placebo
# [6] = RS6269 G/G or A/G (minor allele), 10 mg vs placebo
# [7] = RS6269 G/G or A/G (minor allele), 25 mg vs placebo
smiles,measurement,setting,value
"c1ccc(-c2nnc(O[C@@H]3C4CC5C[C@H]3C[N@](C5)C4)s2)cc1 [Compound A, (4s)-4-(5-phenyl-1,3,4-thiadiazol-2-yloxy)-1-azatricyclo[3.3.1.1^3,7]decane]","MCCB Verbal Learning, Observed Mean (SD) change from baseline",[1],2.24 (8.03) T-score
same,UPSA-2 medication management subscale score,"[2]; 10 mg, P=0.094",statistically significant improvement or statistical trend for improvement
same,UPSA-2 household skills subscale score,"[2]; 10 mg, P=0.096",statistically significant improvement or statistical trend for improvement
same,UPSA-2 comprehension/planning subscale score,"[2]; 10 mg, P=0.102",statistically significant improvement or statistical trend for improvement
same,UPSA-2 comprehension/planning subscale score,"[2]; 25 mg, P=0.005",statistically significant improvement or statistical trend for improvement
same,"UPSA-2 composite score, significance versus placebo","[2]; either dose group (10 mg, 25 mg)",No significance
same,treatment effect on MCCB composite score,[3]; current smokers who contained the major allele for the 4 COMT SNPs,No treatment effect
same,MCCB Change from Baseline to Final Mean(SD),"[3]; RS4633 C/C (major allele), 25 mg",0.4(3.9)
same,MCCB Between-group Difference (Pooled SD),"[3]; RS4633 C/C (major allele), 25 mg vs placebo",−1.1(5.0)
same,MCCB Change from Baseline to Final Mean(SD),"[3]; RS4633 T/T or C/T (minor allele), 10 mg",−0.3(4.4)
same,MCCB Between-group Difference (Pooled SD),"[3]; RS4633 T/T or C/T (minor allele), 10 mg vs placebo",−1.2(4.2)
same,MCCB Change from Baseline to Final Mean(SD),"[3]; RS4633 T/T or C/T (minor allele), 25 mg",2.9(4.8)
same,MCCB Between-group Difference (Pooled SD),[3]; [4],2.0(4.5)
same,MCCB Effect Size (Raw mean),[3]; [4],0.44
same,MCCB Change from Baseline to Final Mean(SD),"[3]; RS4680 A/A or G/A (minor allele), 10 mg",0.1(4.6)
same,MCCB Between-group Difference (Pooled SD),"[3]; RS4680 A/A or G/A (minor allele), 10 mg vs placebo",−1.0(4.1)
same,MCCB Change from Baseline to Final Mean(SD),"[3]; RS4680 A/A or G/A (minor allele), 25 mg",2.9(4.8)
same,MCCB Effect Size (Raw mean),"[3]; RS4680 A/A or G/A (minor allele), 25 mg vs placebo",0.43
same,MCCB Change from Baseline to Final Mean(SD),"[3]; RS4680 G/G (major allele), 25 mg",0.4(3.9)
same,MCCB Between-group Difference (Pooled SD),"[3]; RS4680 G/G (major allele), 25 mg vs placebo",−0.9(5.3)
same,MCCB Change from Baseline to Final Mean(SD),"[3]; RS4818 C/C (major allele), 25 mg",1.2(4.6)
same,MCCB Between-group Difference (Pooled SD),"[3]; RS4818 C/C (major allele), 25 mg vs placebo",−1.0(4.9)
same,MCCB Change from Baseline to Final Mean(SD),"[3]; RS4818 G/C or G/G (minor allele), 10 mg",1.7(3.7)
same,MCCB Between-group Difference (Pooled SD),[3]; [5],2.1(3.6)
same,MCCB Effect Size (Raw mean),[3]; [5],0.58
same,MCCB Change from Baseline to Final Mean(SD),"[3]; RS4818 G/C or G/G (minor allele), 25 mg",3.4(4.4)
same,MCCB Effect Size (Raw mean),"[3]; RS4818 G/C or G/G (minor allele), 25 mg vs placebo",0.93
same,MCCB Change from Baseline to Final Mean(SD),"[3]; RS6269 A/A (major allele), 25 mg",0.8(4.6)
same,MCCB Between-group Difference (Pooled SD),"[3]; RS6269 A/A (major allele), 25 mg vs placebo",−1.0(3.9)
same,MCCB Change from Baseline to Final Mean(SD),"[3]; RS6269 G/G or A/G (minor allele), 10 mg",2.9(4.2)
same,MCCB Between-group Difference (Pooled SD),[3]; [6],1.8(5.0)
same,MCCB Effect Size (Raw mean),[3]; [6],0.36
same,MCCB Change from Baseline to Final Mean(SD),"[3]; RS6269 G/G or A/G (minor allele), 25 mg",3.1(4.4)
same,MCCB Between-group Difference (Pooled SD),[3]; [7],2.0(5.1)
same,MCCB Effect Size (Raw mean),[3]; [7],0.40
